≈ marks a conversion by molar mass, not a printed value. Read-outs that look alike come from different tables or passages of the source.
Key:
[1] = system: Pseudomonas aeruginosa PAO1; experiment: MIC and MBC evaluation (broth microdilution, agar plate assay); type: cell-based
Protocol: (§1) The MIC and MBC assessment on the pathogenic bacteria and the candidate probiotic lactic acid bacteria was carried out by the broth microdilution assay (BMD) and the agar plate assay, respectively, as described in [4]. The metabolic (dehydrogenase) activity of the lactic acid bacteria was assessed as described in [4].
(§2) P. aeruginosa PAO1 ATCC 15692 was purchased from the American Type Cell Culture Collection (ATCC, Manassas, VA, USA). S. mutans DSM 20523 was bought from the German Collection of Microorganisms and Cell Cultures (DSMZ GmbH, Braunschweig, Germany). All other bacteria and strains were purchased as described in [4].

[2] = system: CCL-1; experiment: MTT assay for cytotoxicity; type: cell-based, murine; conditions: for IC50, CCL-1: MTT assay; for IC50: converted to µM
Protocol: (§3) The MTT assay was performed according to Annex C, ISO 10993-5 [56] as in [116]. The panel of non-tumorigenic cell lines consisted of one murine (CCL-1 fibroblasts, which are recommended as a standard for cytotoxicity evaluation in Annex C of ISO 10993-5 [56]) and four human cell lines—HaCaT (immortalized epidermal keratinocytes), HGF (gingival fibroblasts), HEK-293 (embryonic cells from kidney epithelium), and HEPG2 (hepatoblastoma). Although technically a cancer cell line, HEPG2 is non-tumorigenic and retains many hepatocyte-related features in its proteome and a high degree of morphological and functional differentiation, also being a stage one hepatoblastoma.
(§4) CCL-1 was purchased from ATCC and HaCaT and HGF were bought from CLS Cell Lines Service (GmbH, Eppelheim, Germany). HEK-293 and HEPG2 were obtained from DSMZ. The cell culture medium for HaCaT and HEPG2 was Dulbecco’s Modified Eagle Medium (DMEM) with 4.5 g/L glucose (DMEM-HA). For HGF it was DMEM/F-12 (DMEM-12-A, a 1:1 mixture of DMEM and Ham’s F-12 medium). The cell medium for CCL-1 and HEK-293 was Eagle’s Minimum Essential Medium (MEM) (MEM-A). Ten percent heat-inactivated fetal bovine serum (FBS) was added to all media but to the one for the CCL-1 cells, to which 10% heat-inactivated horse serum was added. All media were supplemented with 2 mM L-glutamine and Penicillin/Streptomycin (Pen/Strep, 100×). The cell culture media, sera, and additives were from Capricorn Scientific (Düsseldorf, Germany).
(§5) GraphPad Prism software version 9 (GraphPad Software Inc., San Diego, CA, USA) was used to calculate the IC50 values from the MTT assays as in [116], as well as the MTC values, and the ELISA standard curves. The MTC values are, according to ISO 10993-5, the maximum concentration at which at least 70% of the cells are viable (nonlin fit, range).

[3] = system: Methicillin-Resistant S. aureus (MRSA); conditions: ref [4],[29]; cited from earlier work
[4] = system: Enterococcus faecalis; experiment: MIC and MBC evaluation (broth microdilution, agar plate assay); type: cell-based; conditions: for MBC/MIC ratio, E. faecalis: bactericidal if ≤ 4, bacteriostatic if > 4
Protocol: as §1, §2

[5] = system: Staphylococcus aureus; experiment: as above; type: cell-based; conditions: for MBC/MIC ratio, S. aureus: bactericidal if ≤ 4, bacteriostatic if > 4; for MBC: read-out: Minimal bactericidal concentration (MBC), Staphylococcus aureus
Protocol: as §1, §2

[6] = system: Streptococcus pyogenes; experiment: as above; type: cell-based
Protocol: as §1, §2

[7] = system: Human embryonic kidney-293 (HEK-293); experiment: MTT assay for cytotoxicity; type: cell-based; conditions: for IC50, HEK-293: MTT assay; for IC50: converted to µM
Protocol: as §3, §4, §5

[8] = system: Human gingival fibroblasts (HGF); experiment: MTT assay for cytotoxicity; type: cell-based; conditions: for IC50, HGF: MTT assay; for IC50: converted to µM
Protocol: as §3, §4, §5

[9] = system: Streptococcus pyogenes; conditions: ref [4],[29]; cited from earlier work
[10] = system: HEPG2; experiment: MTT assay for cytotoxicity; type: cell-based, human; conditions: for IC50, HEPG2: MTT assay; for IC50: converted to µM
Protocol: as §3, §4, §5

[11] = system: HaCaT; experiment: MTT assay for cytotoxicity; type: cell-based, human; conditions: for IC50, HaCaT: MTT assay; for IC50: converted to µM
Protocol: as §3, §4, §5

[12] = system: Staphylococcus aureus; conditions: ref [4],[29]; cited from earlier work
[13] = system: Methicillin-Resistant S. aureus (MRSA); experiment: MIC and MBC evaluation (broth microdilution, agar plate assay); type: cell-based, Staphylococcus aureus; conditions: for MBC/MIC ratio, MRSA: bactericidal if ≤ 4, bacteriostatic if > 4
Protocol: as §1, §2

[14] = system: Enterococcus faecalis; conditions: ref [4],[29]; cited from earlier work
[15] = system: HEK-293 cells; experiment: Colony-forming unit assay; type: cell-based, human; conditions: for Percentage of colonies, HEK-293: untreated control = 100%
Protocol: (§6) The CFU was also performed according to ISO 10993-5 [56]. Briefly, the cell lines were seeded at a concentration like for the MTT assay in 6-well plates, treated with the chosen agents and left for a 48 h exposure. Then, the cells were trypsinized, and pre-calculated 20 to 100 µL from the cell suspension was added to a sterile Roswell Park Memorial Institute (RPMI) medium (RPMI-A, Capricorn Scientific), containing 20% of the respective cell culture medium for each cell line but with a final concentration of FBS and L-glutamine of 40–42% and 0.8–1.2 mM, respectively, 0.2% NaHCO3 (S6297, Merck Sigma-Aldrich, Saint Louis, MI, USA), and 0.8% methylcellulose (M0512, Merck Sigma-Aldrich) for viscosity. The viscous cell solution was vortexed for 10 s and dispensed in an equal number of cells per well in 6-well plates (1.2 mL per well) in triplicate for each concentration of treatment. HaCaT and HEK-293 were seeded at a concentration of 2500 cells per mL, CCL-1 and HEPG2—2000 cells per mL, and HGF—1000 cells per mL. The plates were incubated for 6 to 10 days, and when the colonies reached 20 to 50 cells per colony, 100 µL MTT salt solution was added to each well. After half an hour, the stained colonies were counted manually using a microscope.

[16] = system: HaCaT cells; experiment: Colony-forming unit assay; type: cell-based, human; conditions: for Colonies per well for HaCaT cells: mean of three wells; for Percentage of colonies, HaCaT: untreated control = 100%
Protocol: as §6

[17] = system: CCL-1 cells; experiment: Colony-forming unit assay; type: cell-based, murine; conditions: for Percentage of colonies, CCL-1: untreated control = 100%
Protocol: as §6

[18] = system: HT-22 and SH-SY5Y cells; conditions: concentration where viability was restored to about 75%, ref [103]; read-out: Effective concentration 50 (EC50), neuroprotection; cited from earlier work

Q: For `C[C@@H](O)[C@H]1C(=O)N2C(C(=O)O)=C(S[C@@H]3CN[C@H](C(=O)N(C)C)C3)[C@H](C)[C@H]12` [Meropenem, reference compound], which MBC ([1]; Pseudomonas aeruginosa, PAO1) is on record?
A: 6.4 µg/mL (≈ 16.7 µM)

Q: And the MIC ([1]; Pseudomonas aeruginosa, PAO1)?
A: 1.6 µg/mL (≈ 4.17 µM)

Q: Which “Maximum tolerated concentration (MTC), CCL-1” value [2] does the source give for Olympiforin A here?
A: 3.27 µg/mL

Q: And the “IC50, CCL-1” value [2]?
A: 6.13 µg/mL

Q: And the IC50 [2]?
A: 12.3 µM

Q: And the “MIC on bacteria, MRSA” value [3]?
A: 12.5 µg/mL

Q: And the MBC [4]?
A: 252 µM

Q: And the “MBC, Enterococcus faecalis” value [4]?
A: 125 µg/mL

Q: And the “MBC/MIC ratio, E. faecalis” value [4]?
A: 10

Q: And the “Minimal bactericidal concentration (MBC), Staphylococcus aureus” value [5]?
A: 25 µg/mL

Q: What about the “MBC/MIC ratio, S. aureus” value [5] of the same compound?
A: 32

Q: And the MBC [5]?
A: 50 µM

Q: What about the MBC [6] of the same compound?
A: 1008 µM

Q: What about the “MBC, Streptococcus pyogenes” value [6] of the same compound?
A: 500 µg/mL

Q: And the “MBC/MIC ratio, S. pyogenes” value ([6]; bactericidal if ≤ 4, bacteriostatic if > 4)?
A: 40

Q: And the “MBC, Pseudomonas aeruginosa PAO1” value [1]?
A: 2713 µg/mL

Q: What about the “MIC, Pseudomonas aeruginosa PAO1” value [1] of the same compound?
A: 1356 µg/mL

Q: And the “Maximum tolerated concentration (MTC), HEK-293” value [7]?
A: 0.41 µg/mL

Q: And the “IC50, HEK-293” value [7]?
A: 0.69 µg/mL

Q: What about the IC50 [7] of the same compound?
A: 1.39 µM

Q: And the “Maximum tolerated concentration (MTC), HGF” value [8]?
A: 16.78 µg/mL

Q: What about the “IC50, HGF” value [8] of the same compound?
A: 19.44 µg/mL

Q: And the IC50 [8]?
A: 39.1 µM

Q: And the “MIC on bacteria, S. pyogenes” value [9]?
A: 12.5 µg/mL

Q: And the “Maximum tolerated concentration (MTC), HEPG2” value [10]?
A: 2.51 µg/mL

Q: What about the “IC50, HEPG2” value [10] of the same compound?
A: 6.87 µg/mL

Q: What about the IC50 [10] of the same compound?
A: 13.8 µM

Q: And the “Maximum tolerated concentration (MTC), HaCaT” value [11]?
A: 0.47 µg/mL

Q: What about the “IC50, HaCaT” value [11] of the same compound?
A: 1.33 µg/mL

Q: What about the IC50 [11] of the same compound?
A: 2.68 µM

Q: And the “MIC on bacteria, S. aureus” value [12]?
A: 0.78 µg/mL

Q: And the MBC [13]?
A: 171 µM

Q: What about the “MBC, Methicillin-Resistant S. aureus (MRSA)” value [13] of the same compound?
A: 85 µg/mL

Q: And the “MBC/MIC ratio, MRSA” value [13]?
A: 7

Q: And the “MIC on bacteria, E. faecalis” value [14]?
A: 12.5 µg/mL

Q: Which results are given for `CC(C)=CCC[C@]1(C)[C@@H](CC=C(C)C)C[C@]2(C)C(=O)C(CC=C(C)C)=C(O)[C@@]1(C(=O)C(C)C)C2=O` [Hyperpolyphyllirin/hyperibine J]?
A: Maximum tolerated concentration (MTC), CCL-1 [2]: 4.56 µg/mL; IC50, CCL-1 [2]: 7.07 µg/mL (≈ 14.6 µM); IC50 [2]: 14.7 µM; MIC on bacteria, MRSA [3]: 8 µg/mL (≈ 16.6 µM); Minimal bactericidal concentration (MBC), Staphylococcus aureus [5]: 94 µg/mL (≈ 195 µM); MBC/MIC ratio, S. aureus [5]: 47; MBC [5]: 194 µM; Maximum tolerated concentration (MTC), HEK-293 [7]: 0.46 µg/mL; IC50, HEK-293 [7]: 0.79 µg/mL (≈ 1.64 µM); IC50 [7]: 1.64 µM; Maximum tolerated concentration (MTC), HGF [8]: 10.47 µg/mL; IC50, HGF [8]: 12.41 µg/mL (≈ 25.7 µM); IC50 [8]: 25.7 µM; Colonies per well for HEK-293 cells ([15]; 1/2 × IC50, 48 h exposure): 110; Percentage of colonies, HEK-293 ([15]; 1/2 × IC50): 89%; Colonies per well for HEK-293 cells ([15]; 2 × IC50, 48 h exposure): 67; Percentage of colonies, HEK-293 ([15]; 2 × IC50): 54%; Colonies per well for HEK-293 cells ([15]; IC50, 48 h exposure): 91; Percentage of colonies, HEK-293 ([15]; IC50): 73%; Colonies per well for HaCaT cells ([16]; 1/2 × IC50, 48 h exposure): 143; Percentage of colonies, HaCaT ([16]; 1/2 × IC50): 259%; Colonies per well for HaCaT cells ([16]; 2 × IC50, 48 h exposure): 58; Percentage of colonies, HaCaT ([16]; 2 × IC50): 105%; Colonies per well for HaCaT cells ([16]; IC50, 48 h exposure): 133; Percentage of colonies, HaCaT ([16]; IC50): 241%; MIC on bacteria, S. pyogenes [9]: 31 µg/mL (≈ 64.2 µM); Colonies per well for CCL-1 cells ([17]; 1/2 × IC50, 48 h exposure): 162; Percentage of colonies, CCL-1 ([17]; 1/2 × IC50): 111%; Colonies per well for CCL-1 cells ([17]; 2 × IC50, 48 h exposure): 113; Percentage of colonies, CCL-1 ([17]; 2 × IC50): 77%; Colonies per well for CCL-1 cells ([17]; IC50, 48 h exposure): 116; Percentage of colonies, CCL-1 ([17]; IC50): 79%; Maximum tolerated concentration (MTC), HEPG2 [10]: 5.13 µg/mL; IC50, HEPG2 [10]: 14.33 µg/mL (≈ 29.7 µM); IC50 [10]: 29.7 µM; Maximum tolerated concentration (MTC), HaCaT [11]: 0.75 µg/mL; IC50, HaCaT [11]: 2.29 µg/mL (≈ 4.74 µM); IC50 [11]: 4.74 µM; MIC on bacteria, S. aureus [12]: 2 µg/mL (≈ 4.14 µM); MIC on bacteria, E. faecalis [14]: 8 µg/mL (≈ 16.6 µM)

Q: For `CNC(C)C1CCC(N)C(OC2C(N)CC(N)C(OC3OCC(C)(O)C(NC)C3O)C2O)O1` (stereo not shown) [Gentamicin, reference compound], which MBC ([4]; Enterococcus faecalis) is on record?
A: 72 µg/mL

Q: And the “MBC/MIC ratio, E. faecalis” value [4]?
A: 9

Q: What about the MBC ([5]; Staphylococcus aureus) of the same compound?
A: 1.9 µg/mL

Q: What about the “MBC/MIC ratio, S. aureus” value [5] of the same compound?
A: 8 ^5

Q: And the MBC ([13]; Staphylococcus aureus, MRSA)?
A: 2.5 µg/mL

Q: And the “MBC/MIC ratio, MRSA” value [13]?
A: 20

Q: Which EC50 [18] does the source give for `COc1ccc(C(=O)CCc2c(OC)cc(O)cc2OC)cc1` [4-hydroxy-2,6,4′-trimethoxydihydrochalcone] here?
A: 1.48 µM

— publication PMC12566971, “Polyprenylated Acylphloroglucinols from Hypericum rochelii and Hypericum olympicum—Cytotoxic Effects on Non-Tumorigenic Cell Lines and Antibacterial Potential” (Pharmaceuticals, 2025)
